This passage reports logD and logP results from the SangsterLogP compilation.

Data set [1] can be described thus: method code SF-RC, from DOI: 10.1016/0969-8051(94)00090-7, PMID: 7767321. The following applies: pH 7.4.
Data set [2] in a line: method code SF-RC, from DOI: 10.1016/s0969-8051(01)00264-5, PMID: 11711307. The following applies: pH 7.4.
Data set [3] in a line: method code SF-RC, from DOI: 10.1021/jm000079i, PMID: 10956218. The following applies: pH 7.4.
Data set [4] is described as follows: method code SF-HPLC, from DOI: 10.1016/j.ejpb.2006.11.002, PMID: 17182232. The following applies: pH 7.4.
The nature of data set [5]: method code SF-AS, from DOI: 10.1248/cpb.41.171. The following applies: pH 7.0.
A short description of data set [6]: method code SF-RC, from DOI: 10.1002/jps.2600651126, PMID: 11336. The following applies: pH 2.0.
Assay in data set [7]: not given
This is another data set of the same source.

For data set [8] the following is noted: pH 7.4.
Assay in data set [9]: not given
This is another data set of the same source.

Assay in data set [10]: not given
This is another data set of the same source.

Data set [11] in a line: method code SF-RC, from DOI: 10.1016/s0969-8051(03)00050-7, PMID: 12900283. The following applies: pH 7.4.
Assay in data set [12]: not given
This is another data set of the same source.

A short description of data set [13]: method code SF-AS, from DOI: 10.1021/jm00384a018, PMID: 3806586.
The nature of data set [14]: method code SF-GLC, from DOI: 10.1016/0048-3575(86)90042-8.
The nature of data set [15]: method code SF-HPLC, from DOI: 10.1016/j.ejps.2013.04.020, PMID: 23624327.
Data set [16] is described as follows: method code SF-AS, from DOI: 10.1021/jm00392a004, PMID: 3625703. The following applies: pH 6.9.
A short description of data set [17]: method code SF, from DOI: 10.1016/0378-5173(85)90102-4. The following applies: pH 8.0.
The nature of data set [18]: method code SF-HPLC, from DOI: 10.1021/js970291i, PMID: 9523983. The following applies: pH 7.4.
Data set [19] is described as follows: method code SF, from DOI: 10.1007/bf01610114, PMID: 6839039.
Data set [20] can be described thus: method code SF-HPLC, from DOI: 10.1021/jm00119a020. The following applies: pH 7.4.
A short description of data set [21]: method code SF, from DOI: 10.3109/00498258709043934, PMID: 3564538.
The nature of data set [22]: method code SF-HPLC, from DOI: 10.1023/a:1015968113838, PMID: 3247280. The following applies: pH 7.4.
Data set [23] is described as follows: method code SF-AS, from DOI: 10.1081/jlc-100104900. The following applies: pH 1.0.
Data set [24] in a line: method code SF-AS, from DOI: 10.1021/jm00254a028, PMID: 4845386.
Assay in data set [25]: not given
The source holds these as a separate data set.

A short description of data set [26]: method code SF-GLC, from DOI: 10.1002/ps.2780120408. The following applies: pH 7.0.
Data set [27] in a line: method code SF, from DOI: 10.1584/jpestics.8.69.
Data set [28] can be described thus: method code SF-AS, from THAKUR, B.; Mehta, U.; TIPNIS, P. (1981). Ortho effect in partition coefficients of some o-benzyloxybenzamides. Indian J Pharm Sci, 43(6)224-226.
Data set [29] is described as follows: method code SF, from DOI: 10.1016/0048-3575(89)90162-4.
For data set [30] the following is noted: pH 7.4. This is another data set of the same source.
The nature of data set [31]: method code SF-RC, from DOI: 10.1016/j.nucmedbio.2009.09.005, PMID: 20447558. The following applies: pH 7.4.
A short description of data set [32]: method code SF-RC, from DOI: 10.1023/a:1015892313856, PMID: 1495896. The following applies: pH 7.2.
A short description of data set [33]: method code SF-HPLC, from DOI: 10.1002/jps.23140, PMID: 22499243. The following applies: pH 7.4.
Assay in data set [34]: not given
The source holds these as a separate data set.

The nature of data set [35]: method code SF-RC, from DOI: 10.1016/s0969-8051(03)00049-0, PMID: 12900282. The following applies: pH 7.4.
Data set [36] is described as follows: method code SF-AS, from DOI: 10.1021/jm00160a012, PMID: 3761307. The following applies: pH 7.4.
Data set [37] can be described thus: method code SF-HPLC, from DOI: 10.1016/j.bmcl.2010.02.057, PMID: 20231095. The following applies: pH 7.4.
Data set [38] is described as follows: method code SF, from PMID: 8265709. The following applies: pH 7.4.
Data set [39] can be described thus: method code SF, from DOI: 10.1016/0006-2952(79)90295-8, PMID: 36087.
Assay in data set [40]: not given
The source holds these as a separate data set.

Assay in data set [41]: not given
This is another data set of the same source.

The nature of data set [42]: method code SF-HPLC, from DOI: 10.1002/jps.2600830120, PMID: 8138917. The following applies: pH 7.4.

Peptide text beside a SMILES is read from it. * marks the point of attachment. NHtBu = CC(C)(C)N*

Compound `CC(C)(C(=O)c1ccccc1I)c1cccnc1` yielded a logD in data set [1] of 2.19. The compound `CN(C)c1ccc(-c2nc3ccc(I)cc3o2)cc1` came in with a logD in data set [2] of 2.09. The compound `O=CC1=CC=C2C(C(=O)O)CCN2c2cc(Br)ccc21` (stereo not drawn) showed a logP of 3.6. For the compound `CN(C)c1ccccc1Sc1ccc(C#N)cc1N`, in data set [3], the logD came to 2.71. Consider `CC(C)OC(=O)C(NC(=O)c1cccnc1)n1cc(F)c(=O)[nH]c1=O` (stereo not drawn), for which the logD in data set [4] worked out at 0.62. `Cc1cc(-n2[nH]c3c(cnc4ccccc43)c2=O)cs1`: the log distribution coefficient (logD) in data set [5] worked out at 1.58. `CSc1ccc2oc3ccc(C(=O)O)cc3c(=O)c2c1` gave a logD in data set [6] of 3.4. In turn, `CCCCC(O)(Cn1cncn1)c1ccc(Cl)cc1Cl` (stereo not drawn) registered a logP in [7] of 3.9. Take `CCCC(=O)OCOC(=O)c1ccccc1OC(C)=O`: the logD in data set [8] is 2.5. `O=c1ccn(CCO)c(C(O)c2ccccc2)c1O` (stereo not drawn): the logP in [9] is 0.58. The compound `O=C1CN=C(c2cccc(Br)c2)c2cc(Br)ccc2N1` returned a logP in [10] of 3.88. Take `CN(C)c1ccc2c(c1)Cc1cc(I)ccc1-2`: the logD in data set [11] is 2.47.

With `Cn1ccc2cc(-c3nc4ccc(F)nc4o3)ccc21`, the logP in data set [12] amounted to 3.42. In [13], `CC(=O)C1=CCCN(NC(=O)c2ccccc2)C1` came in with a logP of -0.1. For the compound `ClC1(Cl)CC1(c1ccccc1)c1ccccc1`, the logP in [14] came out at 4.88. In [15], `O=C(/C=C/c1ccc(O)cc1)c1ccc(O)cc1O` showed a logP of 1.91.

For `CCCCC1(c2ccncc2)CCC(=O)NC1=O` (stereo not drawn), the logD in data set [16] was 1.68. In data set [17], `NC(Cc1ccccc1)C(=O)OCn1ncc2c(=O)[nH]cnc21` (racemic) yielded a logD of 0.4. On to `Cc1ccnc2c1NC(=O)c1cccnc1N2C1CC1`, for which, in data set [18], the logD is 1.81. `C=CCOC(=O)c1ccccc1C(=O)OCC=C` returned a logP in [19] of 3.23.

With `CCCN1CCO[C@H]2c3cc(O)ccc3OC[C@@H]21`, in [20], the logD worked out at 1.97. Take `CCC(C)OC(=O)C(C(=O)OC(C)CC)=C1SC=CS1` (stereo not drawn): the logP in [21] was determined as 4.89. In data set [22], `CCCCC(=O)OCC1OC(n2cc(I)c(=O)[nH]c2=O)CC1O` (stereo not drawn) showed a logD of 1.44. In the case of `CC(C(=O)O)c1cccc(Oc2ccccc2)c1` (stereo not drawn), the logD in data set [23] amounted to 3.45.

On to `OC1c2ccccc2C2CCCCC2C1O` (stereo not drawn), for which the logP in [24] stood at 2.47.

Take `Cc1cc2cc[nH]c2c(C(=O)Nc2ncccc2C)n1`: the logP in [25] was 5.3. Compound `CCOP(=S)(Oc1ccc([N+](=O)[O-])cc1)c1ccccc1` (stereo not drawn) registered a logD in data set [26] of 3.85. For the compound `CC(C(c1ccccc1)c1ccccc1)[N+](=O)[O-]` (stereo not drawn), the logP in [27] turned out to be 3.91. In turn, `COc1ccc(COc2ccccc2C(N)=O)cc1` showed a logP in data set [28] of 1.63. Compound `OC1(c2ccccc2Cl)CCCCC1n1cncn1` (stereo not drawn) displayed a logP in data set [29] of 2.68. As to `CC(=O)OCC(CCn1cnc2cnc(N)nc21)COC(C)=O`, in data set [30], the logD was 0.32. With `CN(CCc1ccccc1)C(=O)c1ccc[nH]1`, the logD in [31] was determined as 1.65. Regarding `CC(=O)NC(C)C(=O)N1CCCC1C(=O)NC(C)(C)C` (stereo not drawn) (Ac-Ala-Pro-NHtBu; configuration not given here), the logD in [32] was -0.39. In data set [33], `CCCCCCOP1(=O)COC(Cn2ccc(N)nc2=O)CO1` (stereo not drawn) returned a logD of 2.84. In turn, `OCCN1CCC(COc2ccc(I)cc2)CC1` returned a logP in [34] of 4.

`CNc1ccc(/C=C/c2ccc(O)cc2)cc1` registered a pH-dependent lipophilicity (logD) in data set [35] of 2.36. The compound `CC1=C(N)C(=O)c2c(COC(N)=O)c3n(c2C1=O)CC(N1CC1)C3N1CC1` (stereo not drawn) showed a logD in data set [36] of 0.23. Turning to `CCCC(=O)OC(C)OC(=O)c1sc2cc(O)c(O)cc2c1Cl` (stereo not drawn), the logD in [37] is 2.16. The compound `Cc1c(C(C)C)c(=O)n(-c2ccccc2)n1C` came in with a logD in data set [38] of 1.94. As for `CC(C)NCC(O)COc1cccc(CC(N)=O)c1` (stereo not drawn), the logP in data set [39] worked out at 0.22. On to `CC[C@@H](c1cccc(O)c1)[C@@H](C)CN(C)C`, for which the logP in [40] amounted to 2.77. On to `COC(=O)C1(O)c2ccccc2-c2ccc(Cl)cc21` (stereo not drawn), for which, in [41], the logP was 2.86.

`CC(C(N)=O)c1ccc(-c2ccccc2)c(F)c1` (stereo not drawn) gave a logD in [42] of 3.2.
